Source: patent publication US20150157584A1, “INHIBITORS OF HIPPO-YAP SIGNALING PATHWAY” (The Regents of the University of California, priority 2012, published 2015)
Where two headings read alike, the source gives them in different places. Residues, ends and D or L forms follow the SMILES beside them. *: point of attachment. Cbz = O=C(OCc1ccccc1)*

Experiments:
YAP/TAZ [1] = assay: immunoblotting / phos-tag gels of YAP/TAZ phosphorylation in cultured cell lines; assay type: cell-based, human; details: for YAP/TAZ activation by growth factors: EGF 50 ng/ml, PDGF 50 ng/ml, insulin 200 nM, FGF 10 ng/ml; for YAP phosphorylation by PDE inhibitors: ibudilast 100 μM, IBMX 100 μM, rolipram 50 μM, theophylline 1 mM, 1 hr; for YAP/TAZ phosphorylation by BSA preparations: serum-starved HEK293A, 1 or 10 mg/ml BSA; for YAP dephosphorylation, different doses: different doses of LPA, S1P, LPC or PA for 1 h
Protocol: Immunoblotting was performed using standard protocol. […] The phos-tag reagents were purchased from Wako Chemicals, and gels containing phos-tag were prepared according to manufacture's instructions. YAP proteins can be separated into multiple bands in the presence of phos-tag depending on differential phosphorylation levels, with phosphorylated proteins run migrate slower.
(§1) Immunoblotting was performed using standard protocol. Antibodies for pYAP (S127), YAP, TAZ (V386), pCREB, CREB, pMLC2 (S19), pMLC2 (T18/S19), MST1, MST2, and Lats1 were from Cell Signaling Technology. Lats2 antibody was from Bethyl laboratories. HA-HRP, GFP, and MLC2 antibodies were from Santa Cruz biotechnology. Tubulin, HSP90 and Flag-HRP were purchased from Sigma Aldrich. PKA antibody was obtained from BD biosciences. GAPDH antibody was a gift from Dr. Yan Luo. Yki antibody was a gift from Dr. Kenneth Irvine. The phos-tag reagents were purchased from Wako Chemicals, and gels containing phos-tag and MnC12 were prepared according to manufacturer's instructions. YAP proteins can be separated into multiple bands on phos-tag gels, with the phosphorylated form of YAP proteins migrating at a slower speed.

3T3-L1 cells = assay: adipogenesis of 3T3-L1 cells (oil red staining); assay type: cell-based, mouse; details: 3T3-L1 with insulin, dexamethasone, troglitazone; IBMX 250 μM; KT5720 5 μM
Protocol: Adipogenesis. Murine 3T3-L1 cells were maintained in DMEM medium containing 10% calf serum (Hyclone). To initiate adipocyte differentiation, confluent 3T3-L1 cells switched into FBS containing DMEM medium; in addition, insulin, dexamethasone, troglitazone (Tro) were added; in selected samples, IBMX (250 μM) or forskolin (100 μM) were used to increase cAMP and PKA activity. For experiments using KT5720, 3T3-L1 cells were pre-treated with KT5720 (5 μM) overnight in advance and fresh KT5720 was added when adipogenesis was initiated. Two days later, medium was changed into DMEM containing 10% FBS and insulin. And after another two days, cells were incubated in DMEM with FBS. Cells were typically harvested on day 6 depending on the formation and maturation of lipid droplets. Cells were then subjected to RNA extraction or oil red (Sigma Aldrich) staining according to manufacturer's instructions.

YAP/TAZ [2] = assay: immunoblotting of YAP/TAZ phosphorylation in mouse cells (primary hepatocytes, 3T3-L1); assay type: cell-based
Protocol: (§2) Immunoblotting was performed using standard protocol. Antibodies for pYAP (S127), pYAP(S381/384), pMST1/2, TAZ, pERK, ERK1/2, Lats1, MST1, pAKT (S473), pS6K, S6K were from Cell Signaling, antibodies for YAP (H-125), CTGF, Cyr61, Gq/11, G13 and 14-3-3θ were from Santa Cruz, TEAD1 antibody was from BD biosciences, pTAZ (S89) antibody was in-house raised, GAPDH antibody was a gift from Dr. Yan Luo. The phos-tag reagents were purchased from Wako Chemicals, and gels containing phos-tag were prepared according to manufacture's instructions. YAP proteins can be separated into multiple bands in the presence of phos-tag depending on differential phosphorylation levels, with phosphorylated proteins run migrate slower.
as §1

YAP = assay type: cell-based, human
Lats1 = Lats1 immunoprecipitation kinase assay with GST-YAP substrate; assay type: cell-based, human; details: HEK293A; Ki16425 10 μM 30 min; C3 2 μg/ml 4 h
Protocol: Lats1 or HA-Lats2 kinase assays were performed similarly but using GST-YAP as substrates in the absence of [γ-^32P] ATP. The phosphorylation of GST-YAP at S127 was determined by immunoblotting using pYAP antibody.
Cells were lysed using mild lysis buffer (50 mM HEPES at pH 7.5, 150 mM NaCl, 1 mM EDTA, 1% NP-40, 10 mM pyrophosphate, 10 mM glycerophosphate, 50 mM NaF, 1.5 mM Na3VO4, protease inhibitor cocktail [Roche], 1 mM PMSF). Cell lysates were cleared and used for immunoprecipitation. Lats1 antibody (Cell Signaling Technology) was mixed with cell lysates for 1 hr at 4° C., and then protein A agarose beads were added in for 1 hr. After four washes with lysis buffer, beads were washed once with wash buffer (40 mM HEPES, 200 mM NaCl) and once with kinase assay buffer (30 mM HEPES, 50 mM potassium acetate, 5 mM MgCl2). The immunoprecipitated Lats1 was then subjected to a kinase assay in the presence of 500 μM cold ATP, 10 μCi [γ-32P] ATP, and 1 μg of GST-YAP expressed and purified from Escherichia coli as substrate. The reaction mixtures were incubated for 30 min at 30° C., terminated with SDS sample buffer, and subjected to SDS-PAGE and immunoblotting.

CTGF = assay: expression of YAP/TAZ target gene CTGF; assay type: cell-based, human; details: HEK293A
Protocol: as §2
Following various treatments, cells were washed with cold phosphate-buffered saline and subjected to RNA extraction using an RNeasy Plus mini kit (Qiagen). […] Complementary DNA was then diluted and used for quantification (with β-actin gene as a control) by real-time PCR, which was performed using KAPA SYBR FAST qPCR master mix (Kapa Biosystems) and the 7300 real-time PCR system (Applied Biosystems). […]
RNA extraction, reverse transcription and real-time PCR. […] After dilution, cDNA levels were quantified by real-time PCR using KAPA SYBR FAST qPCR master mix (Kapa Biosystems) and the 7300 real-time PCR system (Applied Biosystems). […]

[3] = HEK293A pre-treated 30 min (1 μM Torin1, 10 μM U0126, 10 μM SB253580, 10 nM wortmannin), then 10% FBS 1 h
[4] = 3T3-L1, 10 μM forskolin, 100 μM IBMX or 5 μM KT5720, 1 hr

Compound: N#CC(=C(/N)Sc1ccccc1N)/C(C#N)=C(\N)Sc1ccccc1N [U0126]
- effect on the ability of FBS to dephosphorylate YAP/TAZ (YAP/TAZ [1]): no effect

Compound: PDGF
- YAP/TAZ activation by growth factors (YAP/TAZ [1]; HEK293A): not involved

Compound: CCC(=O)N1CCN(c2ccc(-n3c(=O)ccc4cnc5ccc(-c6cnc7ccccc7c6)cc5c43)cc2C(F)(F)F)CC1 [torin]
- effect on the ability of FBS to dephosphorylate YAP/TAZ (YAP/TAZ [1]; [3]): no effect

Compound: EGF: growth factor tested
- YAP/TAZ activation by growth factors (YAP/TAZ [1]; HEK293A): not involved

Compound: Cn1c(=O)c2[nH]cnc2n(C)c1=O [theophylline]
- YAP phosphorylation by PDE inhibitors (YAP/TAZ [1]; MDA-MB-231): induced YAP phosphorylation

Compound: CCCCCCOC(=O)[C@]1(O)C[C@@H]2O[C@@]1(C)n1c3ccccc3c3c4c(c5c6ccccc6n2c5c31)C(=O)NC4 [KT5720]
- adipogenesis (3T3-L1 cells): inhibited
- TAZ protein level (YAP/TAZ [2]; [4]): increased
- YAP phosphorylation (YAP/TAZ [2]; [4]): repressed
- effect on glucagon-induced YAP phosphorylation (YAP/TAZ [2]; primary hepatocytes isolated from mice, KT5720): abolished
- YAP phosphorylation (YAP/TAZ [1]; MDA-MB-231, KT5720 5 μM): decreased
- effect on forskolin- and epinephrine-induced YAP phosphorylation (YAP/TAZ [1]; MDA-MB-231, KT5720 5 μM 30 min, then 10 μM epinephrine or forskolin 1 hr): largely blocked

Compound: Fraction V BSA: BSA prepared by ethanol precipitation
- YAP/TAZ phosphorylation by BSA preparations (YAP/TAZ [1]; 1 h): no activity

Compound: COC[C@H]1OC(=O)c2coc3c2[C@@]1(C)C1=C(C3=O)[C@@H]2CCC(=O)[C@@]2(C)C[C@H]1OC(C)=O [wortmannin]
- effect on the ability of FBS to dephosphorylate YAP/TAZ (YAP/TAZ [1]; [3]): no effect

Compound: fatty acid-free BSA: fatty acid-free BSA preparation
- YAP/TAZ phosphorylation by BSA preparations (YAP/TAZ [1]; 1 h): no activity

Compound: C/C1=C/C(=O)O[C@@H]2C[C@@H](CC[C@H](C)/C=C\CC1)O[C@@](O)([C@@H]1CSC(=O)N1)C2 [latrunculin B]
- effect on the effects of LPA or S1P on YAP (YAP/TAZ [1]; HEK293A 1 μg/ml LatB 30 min, MCF10A localization): blocked

Compound: insulin: growth factor tested
- YAP/TAZ activation by growth factors (YAP/TAZ [1]; HEK293A): not involved

Compound: glucagon: ligand known to activate PKA
- YAP phosphorylation (YAP/TAZ [2]; primary hepatocytes isolated from mice, glucagon): increased
- YAP phosphorylation (YAP/TAZ [2]; primary mouse hepatocytes, 2 μM glucagon, 1 h): increased

Compound: C[S+]([O-])c1ccc(-c2nc(-c3ccc(F)cc3)c(-c3ccncc3)[nH]2)cc1 (stereo not drawn) [SB253580]
- effect on the ability of FBS to dephosphorylate YAP/TAZ (YAP/TAZ [1]; [3]): no effect

Compound: CO[C@@H]1[C@@H]2OP(=O)(O)OC[C@H]2O[C@H]1n1c(Sc2ccc(Cl)cc2)nc2c(N)ncnc21 [8-CPT-2′-O-Me-cAMP]
- YAP phosphorylation by PKA or Epac selective activators (YAP/TAZ [1]; HEK293A, 1 h): less dramatic

Compound: O=C(Nc1ncnc2c1ncn2[C@@H]1O[C@@H]2COP(=O)(O)O[C@H]2[C@H]1O)c1ccccc1 [b-Bnz-cAMP]
- YAP phosphorylation by PKA or Epac selective activators (YAP/TAZ [1]; HEK293A, 1 h): dramatically increased

Compound: CC(C)C[C@@H](C=O)NC(=O)[C@H](CC(C)C)NC(=O)[C@H](CC(C)C)NC(=O)OCc1ccccc1 [MG132] (Cbz-Leu-Leu-Leu-aldehyde)
- YAP protein levels under various doses of C108 with proteasome inhibitor (YAP): mostly maintained

Compound: phosphatidic acid [PA]
- dephosphorylation of YAP/TAZ by phospholipids (YAP/TAZ [1]; HEK293A, 100 μM lipid): strongly induced dephosphorylation
- concentration needed to induce YAP dephosphorylation (YAP/TAZ [1]; HEK293A, 1 h): 100 µM
- YAP dephosphorylation, different doses (YAP/TAZ [1]; HEK293A): much higher concentrations
- potency relative to LPA (times less potent) (YAP/TAZ [1]; YAP dephosphorylation, HEK293A): 1,000 times

Compound: COc1ccc(C2CNC(=O)C2)cc1OC1CCCC1 (stereo not drawn) [rolipram]
- YAP phosphorylation by PDE inhibitors (YAP/TAZ [1]; MDA-MB-231): induced YAP phosphorylation

Compound: Cc1noc(-c2ccc(CSCCC(=O)O)cc2)c1NC(=O)OC(C)c1ccccc1Cl (stereo not drawn) [Ki16425]
- effect on Lats1 inhibition by LPA, S1P, and serum (Lats1): effectively blocked
- effect on LPA-induced dephosphorylation of YAP/TAZ (YAP/TAZ [1]; HEK293A, Ki16425 10 μM, 30 min): blocked
- effect on S1P-induced dephosphorylation of YAP/TAZ (YAP/TAZ [1]; HEK293A, Ki16425 10 μM, 30 min): not
- effect on the ability of serum to repress YAP/TAZ phosphorylation (YAP/TAZ [1]; HEK293A, Ki16425 10 μM, particularly at 0.2% serum): partially inhibited

Compound: Oc1cc2c(cc1O)[C@H]1c3ccccc3CN[C@@H]1CC2 (racemic) [Dihydrexidine]
- YAP phosphorylation (YAP/TAZ [1]; U2OS cells, 10 μM, 1 h): strong increase

Compound: CC(C)Cn1c(=O)n(C)c(=O)c2[nH]cnc21 [IBMX]
- adipogenesis (3T3-L1 cells): induced
- TAZ protein level (YAP/TAZ [2]; [4]): decreased
- YAP phosphorylation (YAP/TAZ [2]; [4]): induced
- YAP phosphorylation by PDE inhibitors (YAP/TAZ [1]; MDA-MB-231): induced YAP phosphorylation

Compound: CCCCCCCCCCCCC/C=C/[C@@H](O)[C@@H](N)COP(=O)(O)O [S1P, sphingosine 1-phosphate]
- expression of CTGF (CTGF): induced
- YAP/TAZ dephosphorylation, time course (YAP/TAZ [1]; HEK293A, 1 μM for indicated times): potently induced YAP/TAZ dephosphorylation
- YAP dephosphorylation, different doses (YAP/TAZ [1]; HEK293A): potently induced
